The source of these data is PubChem BioAssay (NCI).

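Compound exposure: 48 hours, 5 concentrations, 96-well plates. TGI marks complete inhibition of growth.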 A value given as a limit tells only on which side of the number the result lay.

The first experiment deals with KM12 colon. Description: growth of human tumour cells (NCI), 48 h.
Turning to `COc1cc(OC)c(OC)cc1/C=C/c1nc2ccccc2s1`, the TGI is greater than 100 µM.

On to `Cc1noc(NC(=O)Nc2ccccc2F)c1C#N`, for which the TGI is greater than 100 µM.

With `C[C@@H]1CC[C@]2(C)C3(C)CC[C@]2(OC3=O)[C@@]12CC(c1ccoc1)OC2=O` (stereo not given in full), the TGI was greater than 100 µM.

On to `c1ccc(COC[C@H]2O[C@@H](c3ccccc3)C[C@@H](OCc3ccccc3)C2OCc2ccccc2)cc1` (stereo not given in full), for which the TGI is greater than 10 µM.

In another experiment the test system is HCT-116 colon. Description: growth of human tumour cells (NCI), 48 h.
Compound `COc1cc(OC)c(OC)cc1/C=C/c1nc2ccccc2s1` returned a TGI greater than 100 µM.

`Cc1noc(NC(=O)Nc2ccccc2F)c1C#N` gave a TGI greater than 43 µM.

Regarding `C[C@@H]1CC[C@]2(C)C3(C)CC[C@]2(OC3=O)[C@@]12CC(c1ccoc1)OC2=O` (stereo not given in full), the TGI was 32.1 µM.

For the next experiment, the system named is A549 NSCLC. Description: growth of human tumour cells (NCI), 48 h.
Regarding `COc1cc(OC)c(OC)cc1/C=C/c1nc2ccccc2s1`, the TGI is greater than 100 µM.

`Cc1noc(NC(=O)Nc2ccccc2F)c1C#N` displayed a TGI greater than 52.1 µM.

For `C[C@@H]1CC[C@]2(C)C3(C)CC[C@]2(OC3=O)[C@@]12CC(c1ccoc1)OC2=O` (stereo not given in full), the TGI was greater than 100 µM.

With `c1ccc(COC[C@H]2O[C@@H](c3ccccc3)C[C@@H](OCc3ccccc3)C2OCc2ccccc2)cc1` (stereo not given in full), the TGI was greater than 10 µM.

The subject of a further experiment is TK-10 renal. Description: growth of human tumour cells (NCI), 48 h.
`COc1cc(OC)c(OC)cc1/C=C/c1nc2ccccc2s1` registered a TGI greater than 100 µM.

`Cc1noc(NC(=O)Nc2ccccc2F)c1C#N`: the TGI was greater than 45.1 µM.

The compound `C[C@@H]1CC[C@]2(C)C3(C)CC[C@]2(OC3=O)[C@@]12CC(c1ccoc1)OC2=O` (stereo not given in full) gave a TGI of 96.7 µM.

In turn, `c1ccc(COC[C@H]2O[C@@H](c3ccccc3)C[C@@H](OCc3ccccc3)C2OCc2ccccc2)cc1` (stereo not given in full) registered a TGI greater than 10 µM.

The next experiment concerns LOX IMVI melanoma. Briefly: growth of human tumour cells (NCI), 48 h.
Consider `COc1cc(OC)c(OC)cc1/C=C/c1nc2ccccc2s1`, for which the TGI is greater than 100 µM.

`Cc1noc(NC(=O)Nc2ccccc2F)c1C#N` returned a TGI greater than 100 µM.

For `C[C@@H]1CC[C@]2(C)C3(C)CC[C@]2(OC3=O)[C@@]12CC(c1ccoc1)OC2=O` (stereo not given in full), the TGI was 43.6 µM.

The subject of the next experiment is NCI/ADR-RES ovarian. Briefly: growth of human tumour cells (NCI), 48 h.
`COc1cc(OC)c(OC)cc1/C=C/c1nc2ccccc2s1` came in with a TGI greater than 100 µM.

Compound `Cc1noc(NC(=O)Nc2ccccc2F)c1C#N` displayed a TGI greater than 100 µM.

`C[C@@H]1CC[C@]2(C)C3(C)CC[C@]2(OC3=O)[C@@]12CC(c1ccoc1)OC2=O` (stereo not given in full) came in with a TGI greater than 100 µM.

The subject of the next experiment is NCI-H23 lung. Briefly: growth of human tumour cells (NCI), 48 h.
On to `COc1cc(OC)c(OC)cc1/C=C/c1nc2ccccc2s1`, for which the TGI was greater than 100 µM.

`Cc1noc(NC(=O)Nc2ccccc2F)c1C#N` yielded a TGI greater than 100 µM.

Compound `C[C@@H]1CC[C@]2(C)C3(C)CC[C@]2(OC3=O)[C@@]12CC(c1ccoc1)OC2=O` (stereo not given in full) had a TGI greater than 100 µM.

`c1ccc(COC[C@H]2O[C@@H](c3ccccc3)C[C@@H](OCc3ccccc3)C2OCc2ccccc2)cc1` (stereo not given in full) came in with a TGI greater than 10 µM.

The subject of a further experiment is CAKI-1 renal. Briefly: growth of human tumour cells (NCI), 48 h.
`Cc1noc(NC(=O)Nc2ccccc2F)c1C#N` had a TGI greater than 100 µM.

The compound `C[C@@H]1CC[C@]2(C)C3(C)CC[C@]2(OC3=O)[C@@]12CC(c1ccoc1)OC2=O` (stereo not given in full) returned a TGI of 72.6 µM.

The compound `c1ccc(COC[C@H]2O[C@@H](c3ccccc3)C[C@@H](OCc3ccccc3)C2OCc2ccccc2)cc1` (stereo not given in full) displayed a TGI greater than 10 µM.

The subject of a further experiment is MALME-3M melanoma. Briefly: growth of human tumour cells (NCI), 48 h.
As to `COc1cc(OC)c(OC)cc1/C=C/c1nc2ccccc2s1`, the TGI is greater than 100 µM.

As to `Cc1noc(NC(=O)Nc2ccccc2F)c1C#N`, the TGI is greater than 51.9 µM.

In the case of `C[C@@H]1CC[C@]2(C)C3(C)CC[C@]2(OC3=O)[C@@]12CC(c1ccoc1)OC2=O` (stereo not given in full), the TGI turned out to be 41.2 µM.

Compound `c1ccc(COC[C@H]2O[C@@H](c3ccccc3)C[C@@H](OCc3ccccc3)C2OCc2ccccc2)cc1` (stereo not given in full) showed a TGI greater than 10 µM.

The next experiment deals with HCC-2998 colon. Briefly: growth of human tumour cells (NCI), 48 h.
`COc1cc(OC)c(OC)cc1/C=C/c1nc2ccccc2s1` gave a TGI greater than 100 µM.

In the case of `Cc1noc(NC(=O)Nc2ccccc2F)c1C#N`, the TGI worked out at 3.8 µM.

With `C[C@@H]1CC[C@]2(C)C3(C)CC[C@]2(OC3=O)[C@@]12CC(c1ccoc1)OC2=O` (stereo not given in full), the TGI was greater than 100 µM.

Take `c1ccc(COC[C@H]2O[C@@H](c3ccccc3)C[C@@H](OCc3ccccc3)C2OCc2ccccc2)cc1` (stereo not given in full): the TGI was greater than 10 µM.

Another experiment has as its system OVCAR-8 ovarian. Description: growth of human tumour cells (NCI), 48 h.
`COc1cc(OC)c(OC)cc1/C=C/c1nc2ccccc2s1` came in with a TGI greater than 100 µM.

Take `Cc1noc(NC(=O)Nc2ccccc2F)c1C#N`: the TGI was greater than 100 µM.

Take `c1ccc(COC[C@H]2O[C@@H](c3ccccc3)C[C@@H](OCc3ccccc3)C2OCc2ccccc2)cc1` (stereo not given in full): the TGI was greater than 10 µM.

The next experiment concerns MDA-MB-231 breast. Briefly: growth of human tumour cells (NCI), 48 h.
The compound `COc1cc(OC)c(OC)cc1/C=C/c1nc2ccccc2s1` returned a TGI greater than 100 µM.

`Cc1noc(NC(=O)Nc2ccccc2F)c1C#N` showed a TGI greater than 33.5 µM.

Compound `c1ccc(COC[C@H]2O[C@@H](c3ccccc3)C[C@@H](OCc3ccccc3)C2OCc2ccccc2)cc1` (stereo not given in full) gave a TGI greater than 10 µM.

The next experiment concerns PC-3 prostate. Briefly: growth of human tumour cells (NCI), 48 h.
On to `COc1cc(OC)c(OC)cc1/C=C/c1nc2ccccc2s1`, for which the TGI was greater than 100 µM.

`Cc1noc(NC(=O)Nc2ccccc2F)c1C#N` returned a TGI greater than 41.3 µM.

Compound `C[C@@H]1CC[C@]2(C)C3(C)CC[C@]2(OC3=O)[C@@]12CC(c1ccoc1)OC2=O` (stereo not given in full) returned a TGI greater than 100 µM.

On to `c1ccc(COC[C@H]2O[C@@H](c3ccccc3)C[C@@H](OCc3ccccc3)C2OCc2ccccc2)cc1` (stereo not given in full), for which the TGI is greater than 10 µM.

A further experiment has as its system DU-145 prostate. Briefly: growth of human tumour cells (NCI), 48 h.
Compound `COc1cc(OC)c(OC)cc1/C=C/c1nc2ccccc2s1` registered a TGI greater than 100 µM.

Compound `Cc1noc(NC(=O)Nc2ccccc2F)c1C#N` yielded a TGI greater than 100 µM.

For `C[C@@H]1CC[C@]2(C)C3(C)CC[C@]2(OC3=O)[C@@]12CC(c1ccoc1)OC2=O` (stereo not given in full), the TGI was greater than 100 µM.

In turn, `c1ccc(COC[C@H]2O[C@@H](c3ccccc3)C[C@@H](OCc3ccccc3)C2OCc2ccccc2)cc1` (stereo not given in full) yielded a TGI greater than 10 µM.
